Laboratory results taken from US9579406B2, “Phospholipid ether analogs as agents for detecting and locating cancer, and methods thereof” (Cellectar, Inc., priority 2004, dated 2017).
Like-named read-outs stand apart in the source and are kept apart here.

Assays:
[1] = test system: mammary and intestinal tumors; assay: Apparent therapeutic responses in Apc Min/+ mammary and intestinal tumor mice; type: in vivo, Apc^Min/+ mouse
From the text: During the course of mouse tumor uptake and retention studies with “imaging” doses (15-20 μCi/20 g mouse) of ^125I-labeled NM404, several apparent therapeutic responses have been observed (unpublished results). […] Some of these animals also lost all hair above larger mammary tumors at around 8 days after injection. Moreover, these mice also get intestinal tumors and usually suffer from intestinal bleeding resulting in severe anemia, which renders their feet white. Dr. Moser noted that the feet of these mice had reverted to a pink color around 5 days after a single injection of NM404. […] Another compelling example of tumor regression is illustrated in FIG. 6. Two litter mates each received SCC1 and SCC6 xenografts in their left and right flanks, respectively. One mouse received a single injection of ^125I-NM404 (20 μCi). […] These coincidental findings were reconfirmed in two separate age-matched groups each involving more than 6 mice. Although these observations with ^125I-NM404 are anecdotal at this point, they do seem to strongly indicate potential for radiotherapy applications particularly if labeled with iodine-131. Ongoing quantitative tumor uptake and retention studies in several animal tumor models will also provide sufficient data to initiate a comprehensive dosimetry analysis for this agent in order to estimate its true radiotherapeutic potential.

[2] = MIRDOSE radiation dose estimates for the adult female; design: species or system human (from female rat biodistribution data)
Experimental: Dosimetry estimation regarding I-125-NM404 for an adult female patients were calculated based on SPECT imaging data using female non-tumor bearing rats following administration of I-131-NM404. The results are listed below:
The dosimetry data were calculated from SPECT imaging in rats using I-131-NM404 and then converted to I-125-NM404. The adrenal gland seems to be the dose-limiting or critical organ for radiation exposure. In the SPECT imaging experiments the thyroids of rats were unblocked. Thus, the thyroid calculations should be evaluated with caution.

[3] = test system: human PC-3 tumor cells in tibia; assay: Intratibial PC-3 bone tumor model, radioactivity scan fused with microCT; type: in vivo, NUDE mice; conditions: 4 days following injection
Experimental: Following in vivo imaging of anesthetized mice, the prostate tumors were removed immediately, and imaged ex vivo on the same scanner (equipped with high resolution 1 mm collimator and 2-D acquisition and analysis software) in order to avoid tissue attenuation associated with the low energy of iodine-125 (FIG. 21). […] In an attempt to simulate bone metastases another experiment was performed wherein human PC-3 tumor cells were implanted into the tibia of immune compromised NUDE mice (n=6) according to a recent reports. Following tumor cell inoculation, mice were scanned serially by high-resolution microCT in order to monitor bone tumor development (FIG. 22). Once bone deterioration was detected, iodine-125 labeled NM404 was administered intravenously via tail vein. Mice were scanned for radioactivity and by microCT 4 days post NM404 administration. Radioactivity scans were fused with microCT scans (FIG. 23) to corroborate NM404 radioactivity and tumor location.

[4] = Acute GLP toxicology, single dose, 14 days observation, rabbits; type: in vivo
Experimental: Formal toxicology studies of NM404 in male rats and rabbits were performed at the Toxicology Research Center of the State University of New York at Buffalo under the direction of Dr. Paul Kostyniak. Drug vehicle and drug product were provided to Dr. Kostyniak by Dr. Raymond Counsell of the University of Michigan for testing as described in the appended synopses of Study 27 and Study 28. […] Human safety studies of unlabeled NM404 were initiated in normal male humans at a mass of 10 times the anticipated imaging dose and about 21 times the anticipated therapy dose. […] This toxicology study was performed under GLP conditions.
Subsequently, the researchers at the University of Wisconsin initiated a toxicology study of unlabeled NM404 in female rats and rabbits (Study 31 and Study 32) at the Toxicology Research Center at SUNY-Buffalo in order to expand the patient population to be studied in the NSCLC Phase 1 clinical trial. […] Human safety studies of unlabeled NM404 were initiated in normal female humans at a mass of 10 times the initially anticipated imaging dose and about 21 times the anticipated therapy dose. […] This toxicology study was performed under GLP conditions.

[5] = Blood plasma kinetics in rats; type: in vivo; conditions: rat
phospholipase D (PLD) = assay: Phospholipase D (PLD) assay; type: biochemical, cabbage; conditions: in the presence of ethanol
Experimental: Finally, several PLE analogs were subjected to a phospholipase D (PLD) assay. The PLD, which was isolated from cabbage, is similar to mammalian PLD in that the cabbage form affords phosphatidylethanol-type products in addition to phosphatidic acid when the enzymatic reaction is performed in the presence of ethanol. Several of the PLE analogs subjected to these assay conditions did give rise to the phosphatidylethanol adduct, indicating possible interaction with PLD. The inventors believes that NM404 is a metabolic substrate to human Phospholipase D, and that the relative absence of Phospholipase D in cancer cell membranes is the underlying mechanism for tumor-selective retention of NM404. Although known from the literature (reference[…]), it is still unclear why cancers lack PLD in their membranes.
As conclusion, the mechanism of selective retention of NM404 may be due to a decrease in the membrane levels of PLD, thus precluding metabolism and clearance of NM404 from the cell. […] This supports the finding of the in vitro cell culture uptake and retention study wherein it was shown that PLE analogs were sequestered by and subsequently metabolized by normal cells (which contained normal levels of PLD). […]

Prostate MatLyLu = assay: Tumor models examined with NM404 (Table 2); type: in vivo, Rat; conditions: Adenocarcinoma
From the text: (§1) NM404 has now been evaluated in 27 animal tumor models, including several lung, and it is clear that once the agent enters tumor cells, it reaches a metabolic dead end and becomes trapped. […] NM404 is also retained in spontaneous murine lung tumors (FIG. 13). Using ^125I-labeled NM404, the inventors have been able to image mammary and prostate tumors in mice in excess of 60 days. […] Imaging and tissue distribution studies performed in mouse models aimed at determining the uptake characteristics in a wide variety of tumor models are summarized in Table 2.
(§2) Although tumor retention can be explained by a lack of metabolic phospholipase enzymes in the tumor cell membranes, the exact mechanism of tumor cell uptake is unknown. […] The inventors are currently evaluating the selectivity of NM404 in a unique mouse tumor model developed at Wisconsin, wherein both preneoplastic hyperplasias and malignant adenocarcinomas form spontaneously in the mammary gland. […] If this initial observation is validated, then via genomic and or proteomic analysis the inventors may be able to identify a key genetic difference between malignant tumors and their non malignant predecessor cells. This could identify a completely new molecular therapeutic target that may be universal for all types of cancer.

Walker-256 = assay: Tumor models examined with NM404 (Table 2); type: in vivo, Rat; conditions: Carcinosarcoma
From the text: as §1, §2

| SMILES | survival versus untreated litter mates ([1]; after 21 days, both intestinal models) | intestinal tumors remaining at dissection ([1]; single injection) | mammary tumor growth ([1]; single iv injection, 15-20 μCi/20 g mouse) | activity for 3 rads to Ovaries [2] [mCi] | activity for 5 rads to Adrenals [2] [mCi] | activity for 5 rads to Thyroids [2] [mCi] | correlation of radioactivity with tibial tumor [3] | toxic effects ([4]; female rabbits, 0.04 mg/kg (Study 32)) | adverse effects ([4]; male and female rabbits) | toxic effects ([4]; male rabbits, 4 mg/kg (Study 28)) | acute toxicity ([4]; unlabeled, 1200 times the anticipated imaging mass dose) | half-life ([5]; read-out: distribution phase half life (converted)) [days] | half-life ([5]; read-out: elimination half life time in plasma (converted)) [days] | substrate for PLD (phospholipase D (PLD)) | NM404 Tumor Localization (Prostate MatLyLu) | NM404 Tumor Localization (Walker-256) |
| --- | --- | --- | --- | --- | --- | --- | --- | --- | --- | --- | --- | --- | --- | --- | --- | --- |
| C[N+](C)(C)CCOP(=O)([O-])OCCCCCCCCCCCCCCCCCCc1ccc([125I])cc1 [Compound I-125-NM404] | easily outlived their untreated litter mates | only a very few, if any | tumor growth remains static | 20 | 18 | 4.5 | Focal NM404 activity correlates well with tibial PC3 tumor | – | – | – | – | – | – | – | – | – |
| C[N+](C)(C)CCOP(=O)([O-])OCCCCCCCCCCCCCCCCCCc1ccc(I)cc1 [NM-404, 18-(4-iodophenyl)-octadecylphosphocholine] | – | – | – | – | – | – | – | no significant toxic effects were noted | no adverse effects attributable to the test article were noted | no significant toxic effects were noted | no acute toxicities were found | 0.203 | ~8.71 | a good substrate for this enzyme | Yes (Localization defined as >5% injected dose per gram tumor basis based on tissue distribution data) | Yes (Localization defined as >5% injected dose per gram tumor basis based on tissue distribution data) |
